Consider three substances from patent US6933123B2, “Peptides from the E2, E6, and E7 proteins of human papilloma viruses 16 and 18 for detecting and/or diagnosing cervical and other human papillomavirus associated cancers” (priority 2001, dated 2005).

The assay concerns antibodies formed against human papillomavirus (HPV). In words: ELISA immunoassay of titer-plate-bound HPV peptides with subject serum (antibody-peptide complex, HRP anti-human IgG, TMB). The format is binding. To be noted: serum of Subject 6 (low pre-test probability, no HPV DNA detected), diluted 1:25; absorbance read at 450 nm. The method, then:
REACTI-BIND™ Maleic Anhydride Activated Polystyrene Plates (Pierce, Rockford, Ill.) may be employed. Each amino acid sequence may be diluted to 12.5 μg/mL with coating buffer (100 mM sodium bicarbonate buffer, pH 9.4). To each titer well, 100 μL (1.25 μg) of the diluted sequence solution may be added. The plate may then be incubated for one hour at room temperature with shaking. The plate may be emptied and residual liquid tapped onto a clean paper towel. Each well may be washed with 100 μL wash buffer (0.1% bovine serum albumin and 0.05% Tween-20 in phosphate buffered saline, pH 7.0). This may be repeated for a total of three times. Each time, the plate may be emptied and residual liquid tapped onto a clean paper towel. To each well, 200 μL of blocking solution (3% bovine serum albumin and 0.05% Tween-20 in phosphate buffered saline, pH 7.0) may be added.
Blocking solution may be left in each well for one minute. The titer plate may then be emptied by inversion. Filling with blocking solution and emptying may be done three times. Finished titer plates may be dried at room temperature and stored at 4° C. for up to four months.
For negative samples, serum may be obtained from virgin females, ages 14 and 15, and from adult sexually active, monogamous women, more than 25 years old, with histories of no Pap smear abnormalities and DNA verification of HPV absence. Positive samples consisted of serum obtained from females diagnosed with cervical cancer or precancerous disease. Subject and control sera may be diluted 1:25 with wash buffer (0.1% bovine serum albumin and […] in phosphate buffered saline, pH 7.0). To each well, 100 μL of diluted serum may be added, and the assay plate incubated for one hour at room temperature with shaking. Each well may then be rinsed three times, each with 200 μL wash buffer. Each rinse may be for five minutes. […]
The bottom of the titer plate may be cleaned with 70% ethanol, and the titer plate loaded into the spectrophotometer. Absorbance may be read at 450 nm, with […] of TMB solution plus […] of 2N HCl used as a blank control.

No end group written: not given here.

On to “HAGGQVILCPTSVFSSNEVSSPE [SEQ ID NO 3, 23 residues making up amino acids 187 through 209 of the HPV 16 E2 oncoprotein]”, for which the absorbance values amounted to 0.49.

As to “KHGYTVQFDGICNTMHY [SEQ ID NO 2, 17 residues making up amino acids 112 through 131 of the HPV 16 E2 oncoprotein]”, the absorbance values was 0.32.

As to “Lys Gln Leu Gln His Thr Pro Ser Pro Tyr Ser Ser Thr Val Ser Val Gly Thr Ala Lys Thr Tyr [SEQ ID NO 1]”, the absorbance values is on record as 0.44.
